From patent publication US11672868B2, “Bicyclic peptide ligands specific for MT1-MMP” (priority 2014, dated 2023)
Read-outs that look alike come from different tables or passages of the source. Marks after values point to notes of the source that are not given here. Numbered stars: 1 amine (or outer) side, 2 acyl side, 3 side chain; on linkers, the order of the positions; unused ones are H or OH. Bridge positions count the residues as written; N and C are the ends. Square brackets hold non-standard residues; d marks the D form. Peptide text beside a SMILES is read from it. I, II: the chains in the order shown. * marks the point of attachment. X3 = COc1cc2cc(c1Cl)N(C)C(=O)C[C@H](OC(=O)[C@H](C)N(C)C(=O)CCSSCCCC(=O)*)[C@]1(C)O[C@H]1[C@H](C)[C@@H]1C[C@@](O)(NC(=O)O1)[C@H](OC)/C=C/C=C(\C)C2; Dolaproine = CO[C@@H]([C@@H]1CCCN1)[C@@H](C)C(=O)O; Dil = CC[C@H](C)[C@H](NC)[C@@H](CC(=O)O)OC; Phe(4-Br) = N[C@@H](Cc1ccc(Br)cc1)C(=O)O; 1Nal = N[C@@H](Cc1cccc2ccccc12)C(=O)O; TBMB = c1c(C[*:1])cc(C[*:3])cc1C[*:2]; PABC = O=C(OCc1ccc(N[*:1])cc1)[*:2]; Glutaryl = O=C(CCCC(=O)[*:2])[*:1]; X4 = C[C@@H](N*)[C@@H](O)c1ccccc1; Cit = NC(=O)NCCC[C@H](N)C(=O)O; Tle = CC(C)(C)[C@H](N)C(=O)O; NMeV = CN[C@H](C(=O)O)C(C)C; Sar = CNCC(=O)O

How the values were obtained:
[1] = Plasma stability, quantitative LC-MS (Method #2); assay type: in vitro ADME, mouse; conditions: ex vivo mouse plasma at 37° C., Method #2 (FIG. 1, FIG. 3A); read-out: half-life of the peptide in mouse plasma (converted)
Experimental: (§1) To obtain plasma stability of bicyclic peptides quantitatively, peptide stock solutions (200 μM in DMSO) were mixed with plasma (human or mouse), such that final concentrations were 10 μM. 40 μL samples were taken periodically up to 8 hrs and frozen at −80° C. Prior to LC-MS analysis, samples were defrosted, and mixed with 3 volumes (here, 120 μL) of 1:1 acetonitrile/MeOH water. The milky suspensions were centrifuged for 30 min at 13000 rpm, and peptide-containing supernatants were quantitated for doubly/triply charged species and MS/MS fragments thereof using a Waters Xevo TQ-D instrument, while using a plasma extracted standard curve of the same peptides as a reference. The half-life of degradation in plasma was used to assess the comparative stability of the molecules.

[2] = Plasma stability, quantitative LC-MS (Method #2); assay type: in vitro ADME, human; conditions: human, human plasma, 37° C.; sentence prints mouse plasma; read-out: half-life of the peptide in plasma (FIG. 3B, human plasma stability) (converted)
Experimental: as §1, with “[…] […]” for “To obtain plasma stability of bicyclic peptides quantitatively, peptide stock solutions (200 μM in DMSO) were mixed with plasma (human or mouse), such that final concentrations were 10 μM. 40 μL samples were taken periodically up to 8 hrs and frozen at −80° C.”

[3] = tested on: human lung squamous cell carcinoma line EBC-1; test: Efficacy in EBC-1 xenograft mice; assay type: in vivo, mouse; conditions: mouse bearing EBC-1 tumours; ± 95% confidence limit
Experimental: In vivo efficacy of BT17BDC-17, BT17BDC-18, BT17BDC-19 and BT17BDC-20 All BDCs containing the stabilised bicycle core sequence were tested for their efficacies in in vivo mouse xenograft models, using the human lung squamous cell carcinoma line EBC-1.
The area under the curve (AUC) of tumour volume over time and BDC was taken and plotted against the corresponding dose group (FIG. 13).

[4] = tested on: HT-1080 xenograft tumours; test: Efficacy in HT-1080 xenograft mice; assay type: in vivo, mouse; conditions: HT1080 xenograft
Experimental: Balb/c nude mice bearing subcutaneous HT-1080 xenograft tumours were treated with BDCs or vehicle (PBS). BDCs were dosed 3 times weekly for 2 weeks, dosing initiated when tumours measured approx. 150-200 mm^3. Mice were monitored, and measurements of tumour volume and body weight recorded 3 times a week.

[5] = Mouse pharmacokinetics, single intravenous dose; assay type: in vivo; conditions: male CD1 mice, single intravenous 5.925 mg/kg, mean
Experimental: Mouse pharmacokinetics were acquired using bicyclic peptide 17-69-04-N004, which was dosed to one group of 12 male CD1 mice as a single intravenous, 5.925 mg/kg doses as a 5 mL/kg bolus of a 1.19 mg/mL solution. […] Blood samples were taken from two animals per time-point, via cardiac puncture under terminal anaesthesia, at 0.08, 0.5, 1, 2 and 4 hours post-dose, and transferred to EDTA tubes for plasma generation. Plasma samples were immediately frozen at −20 C. For analysis, samples were thawed rapidly and 50 μL aliquots were treated with 3 volumes of extraction solvent (2:9:9 mixture of 10 mM ammonium bicarbonate, pH 8, acetonitrile and methanol, containing an analytical internal standard). Precipitated proteins were removed by centrifugation and the supernatant was analysed by LC-MS/MS. Quantification of the samples was by reference to a calibration line prepared in control mouse plasma. Pharmacokinetic parameters were determined by non-compartmental analysis using the software package PK Solutions 2.0 from Summit Research Services.
Cmax: Maximum measured concentration;
Tmax: Time at which maximum concentration was measured;
AUC 0-t: Area under the plasma drug concentration/time curve from 0 minutes to last quantifiable data point; and
AUC 0-∞: Area under the plasma drug concentration/time curve from 0 minutes extrapolated beyond the final data point based on the terminal half-life.

SMILES | half-life at 10 μM [1] | half-life at 10 μM [2] | weight of the animals during treatment [4] | other results
C[C@H](NC(=O)CN(C)C(=O)CN(C)C(=O)CN(C)C(=O)CN(C)C(=O)CN(C)C(=O)CN(C)C(=O)CN(C)C(=O)CN(C)C(=O)CN(C)C(=O)CN(C)C(=O)CN)C(=O)N[C@H]1CSCc2cc3cc(c2)CSC[C@H](NC(=O)[C@@H](C)NC(=O)[C@H](Cc2cccc4ccccc24)NC(=O)[C@H](CCC(=O)O)NC(=O)[C@H](CC(N)=O)NC(=O)[C@@H](C)NC1=O)C(=O)N[C@@H](CCC(=O)O)C(=O)N[C@@H](CC(=O)O)C(=O)N[C@@H](Cc1ccccc1)C(=O)N[C@@H](Cc1ccc(Br)cc1)C(=O)N[C@@H](CC(=O)O)C(=O)N[C@@H](C(C)(C)C)C(=O)N[C@H](C(N)=O)CSC3 [17-69-07-N244, G-Sar10-A-(17-69-07) D-Ala1 1Nal4 D-Ala5 4BrPhe9 tBuGly11] (H-G[Sar][Sar][Sar][Sar][Sar][Sar][Sar][Sar][Sar][Sar]AC[dA]NE[1Nal][dA]CEDF[Phe(4-Br)]D[Tle]C-NH2; linker 13-19-26 via TBMB; C-terminus assumed) | > 20 h | > 20 h |  | 
C[C@H](NC(=O)CN(C)C(=O)CN(C)C(=O)CN(C)C(=O)CN(C)C(=O)CN(C)C(=O)CN(C)C(=O)CN(C)C(=O)CN(C)C(=O)CN(C)C(=O)CN(C)C(=O)CN)C(=O)N[C@H]1CSCc2cc3cc(c2)CSC[C@H](NC(=O)[C@@H](C)NC(=O)[C@H](Cc2cccc4ccccc24)NC(=O)[C@H](CCC(=O)O)NC(=O)[C@H](CC(N)=O)NC(=O)[C@@H](C)NC1=O)C(=O)N[C@@H](CCC(=O)O)C(=O)N[C@@H](CC(=O)O)C(=O)N[C@@H](Cc1ccccc1)C(=O)N[C@@H](Cc1ccc(O)cc1)C(=O)N[C@@H](CC(=O)O)C(=O)N[C@@H](C(C)(C)C)C(=O)N[C@H](C(N)=O)CSC3 [17-69-07-N231, G-Sar10-A-(17-69-07) D-Ala1 1Nal4 D-Ala5 tBuGly11] (H-G[Sar][Sar][Sar][Sar][Sar][Sar][Sar][Sar][Sar][Sar]AC[dA]NE[1Nal][dA]CEDFYD[Tle]C-NH2; linker 13-19-26 via TBMB; C-terminus assumed) | > 20 h | > 20 h |  | 
CC[C@H](C)[C@@H]1NC(=O)[C@H](CC(=O)O)NC(=O)[C@H](Cc2ccc(O)cc2)NC(=O)[C@H](Cc2ccccc2)NC(=O)[C@H](CC(=O)O)NC(=O)[C@H](CCC(=O)O)NC(=O)[C@@H]2CSCc3cc(cc(c3)CSC[C@H](NC(=O)[C@H](C)NC(=O)CN(C)C(=O)CN(C)C(=O)CN(C)C(=O)CN(C)C(=O)CN(C)C(=O)CN(C)C(=O)CN(C)C(=O)CN(C)C(=O)CN(C)C(=O)CN(C)C(=O)CNC(=O)CCCSSCCC(=O)N(C)[C@@H](C)C(=O)O[C@H]3CC(=O)N(C)c4cc(cc(OC)c4Cl)C/C(C)=C/C=C/[C@@H](OC)[C@@]4(O)C[C@H](OC(=O)N4)[C@@H](C)[C@@H]4O[C@@]34C)C(=O)N[C@@H](Cc3ccc(O)cc3)C(=O)N[C@@H](CC(N)=O)C(=O)N[C@@H](CCC(=O)O)C(=O)N[C@@H](Cc3ccccc3)C(=O)NCC(=O)N2)CSC[C@@H](C(N)=O)NC1=O [BT17BDC-9] (X3-G[Sar][Sar][Sar][Sar][Sar][Sar][Sar][Sar][Sar][Sar]ACYNEFGCEDFYDIC-NH2; linker 13-19-26 via TBMB) |  |  | largely stable | ED50, effective dose to achieve 50% tumour AUC reduction [3]: 2.1 ± 1.1^b mg/kg; reduction in tumour volume compared to vehicle control ([4]; after 9 days post injection): significant reduction in tumour volume
CC[C@H](C)[C@@H]1NC(=O)[C@H](CC(=O)O)NC(=O)[C@H](Cc2ccc(O)cc2)NC(=O)[C@H](Cc2ccccc2)NC(=O)[C@H](CC(=O)O)NC(=O)[C@H](CCC(=O)O)NC(=O)[C@@H]2CSCc3cc(cc(c3)CSC[C@H](NC(C)=O)C(=O)N[C@@H](Cc3ccc(O)cc3)C(=O)N[C@@H](CC(N)=O)C(=O)N[C@@H](CCC(=O)O)C(=O)N[C@@H](Cc3ccccc3)C(=O)NCC(=O)N2)CSC[C@@H](C(N)=O)NC1=O [17-69-07-N004, Ac-(17-69-07) (wildtype)] |  |  |  | Clearance based on AUC 0-∞ [5]: 20.7 mL/min/kg; Volume of Distribution based on AUC 0-∞ [5]: 0.4 L/kg
CC[C@H](C)[C@@H]([C@@H](CC(=O)N1CCC[C@H]1[C@H](OC)[C@@H](C)C(=O)N[C@H](C)[C@@H](O)c1ccccc1)OC)N(C)C(=O)[C@@H](NC(=O)[C@H](C(C)C)N(C)C(=O)OCc1ccc(NC(=O)[C@H](CCCNC(N)=O)NC(=O)[C@@H](NC(=O)CCCC(=O)NCC(=O)N(C)CC(=O)N(C)CC(=O)N(C)CC(=O)N(C)CC(=O)N(C)CC(=O)N(C)CC(=O)N(C)CC(=O)N(C)CC(=O)N(C)CC(=O)N(C)CC(=O)N[C@@H](C)C(=O)N[C@H]2CSCc3cc4cc(c3)CSC[C@H](NC(=O)CNC(=O)[C@H](Cc3ccccc3)NC(=O)[C@H](CCC(=O)O)NC(=O)[C@H](CC(N)=O)NC(=O)[C@H](Cc3ccc(O)cc3)NC2=O)C(=O)N[C@@H](CCC(=O)O)C(=O)N[C@@H](CC(=O)O)C(=O)N[C@@H](Cc2ccccc2)C(=O)N[C@@H](Cc2ccc(O)cc2)C(=O)N[C@@H](CC(=O)O)C(=O)N[C@@H]([C@@H](C)CC)C(=O)N[C@H](C(N)=O)CSC4)C(C)C)cc1)C(C)C [BT17BDC-1] (I: G[Sar][Sar][Sar][Sar][Sar][Sar][Sar][Sar][Sar][Sar]ACYNEFGCEDFYDIC-NH2 / II: V[Cit][PABC][NMeV]V[Dil][Dolaproine]-X4; linker I:13-I:19-I:26 via TBMB; linker I:N-II:N via Glutaryl) |  |  | largely stable | 
